Laboratory results as given in article PMC7822874, “Chemoprotective antimalarials identified through quantitative high-throughput screening of Plasmodium blood and liver stage parasites” (Scientific Reports, 2021).

Columns and labels:
[1] = tested on: Plasmodium falciparum Dd2 asexual blood stage parasites; assay: microbe, parasite or virus in culture; set-up: species or system Plasmodium falciparum Dd2 in human erythrocytes; single determination (one 11-point concentration-response curve); settings: Plasmodium falciparum, DD2, Erythrocyte, 72 h; read-out: AC50
in vitro = settings: human, n = 1

Row | Compound | AC50 [1] | CC50 at 48 h (in vitro; hepg2) | CC50 at 48 h (in vitro; HepG2 cells)
1 | C[n+]1c2ccccc2nc2ccc(NCCO)cc21.[O-][Cl+3]([O-])([O-])[O-] | 1.19 µM | 13.7 µM | –
2 | c1ccc(-c2nc(NCc3ccco3)c3ccccc3n2)nc1 [MLS000040057-01] | 5.96 µM | – | 27.3 µM
3 | Cc1cc(O)c(-c2cc(C(=O)Nc3ccc(S(=O)(=O)N4CCOCC4)cc3)[nH]n2)cc1C [MLS000042703-01] | 1.68 µM | – | 27.3 µM
4 | CCCOC(=O)c1[nH]c2c(c1C)C(=O)CC(c1cc(OC)c(OC)c(OC)c1)C2 (stereo not drawn) [MLS000116504-01] | 6.68 µM | – | 21.7 µM
5 | COc1cnc(-c2ccccn2)nc1Sc1ccc(Cl)cc1 [MLS000325700-01] | 5.96 µM | – | 24.3 µM
6 | Cc1sc(NC(=O)c2ccco2)c(C(c2cccnc2)N2CCC(C)CC2)c1C (stereo not drawn) [MLS000536186-01] | 5.31 µM | – | 8.62 µM
7 | CC1CCN(S(=O)(=O)c2ccc3c(c2)C(=NO)c2cc(S(=O)(=O)N4CCC(C)CC4)ccc2-3)CC1 [MLS000551434-01] | 1.68 µM | 21.7 µM | –
8 | O=C(/C(=C/c1ccc(Cl)cc1)c1nc2ccccc2[nH]1)c1cccs1 [MLS000565128-01] | 2.11 µM | – | 24.3 µM
9 | Cc1c(NN=C(C#N)C(=O)c2ccccc2)c(=O)n(-c2ccccc2)n1C [MLS000567622-01] | 6.68 µM | – | 12.2 µM
10 | Cc1[nH]n(-c2ccccc2)c(=O)c1/C=N/Nc1nncc(-c2ccccc2)n1 [MLS000579075-01] | 4.22 µM | – | 13.7 µM
11 | CCOC(=O)c1cnc(-n2nc(C)cc2C)nc1NNc1nc(-c2ccccc2)cc(-c2ccccc2)n1 [MLS000580862-01] | 2.11 µM | – | 19.3 µM
12 | COc1ccc(/C=N/Nc2cc(C)nc(-n3nc(C)cc3C)n2)c(OC)c1 [MLS000589396-01] | 5.31 µM | – | 24.3 µM
13 | Nc1nc(-c2ccccn2)nc(N)c1Cc1ccc(Cl)cc1Cl [MLS000691892-01] | 7.5 µM | – | 13.7 µM
14 | Nc1nc(-c2ccccn2)nc(N)c1Cc1ccccc1F [MLS000691905-01] | 13.3 µM | – | 27.3 µM
15 | COc1cnc(-c2ccccn2)nc1NC(C)C [MLS000692222-01] | 5.31 µM | – | 15.3 µM
16 | N#Cc1c(Cl)nsc1NC(=O)c1ccccc1 [MLS000696348-01] | – | – | 13.7 µM
17 | N=c1ccn(CC(=O)c2ccc(-c3ccccc3)cc2)cc1 [MLS000698051-01] | 0.944 µM | – | 24.3 µM
18 | CCOC(=O)c1c(C)[nH]c2c1-c1ccccc1C(=O)C2=O [MLS000701140-01] | 2.37 µM | – | 10.9 µM
19 | c1ccc(CCNc2nc(-c3ccccn3)cs2)cc1 [MLS000708031-01] | 7.5 µM | – | 21.7 µM
20 | c1csc(-c2cn3ccc4ccccc4c3n2)c1 [MLS000711806-01] | – | – | 15.3 µM
21 | CCCCC(=O)NC(c1cccs1)c1cc(Cl)c2cccnc2c1O (stereo not drawn) [MLS000714525-01] | – | – | 13.7 µM
22 | C=C1C(=O)O[C@@H]2C[C@@H](C)[C@@H]3C=CC(=O)[C@@]3(C)[C@@H](OC(=O)CC(=O)O[C@H]3[C@@H]4C(=C)C(=O)O[C@@H]4C[C@@H](C)[C@@H]4C=CC(=O)[C@]43C)[C@H]12 [MLS000728515-01] | – | 10.9 µM | –
23 | Oc1ccccc1C(Nc1nccs1)c1ccc2cccnc2c1O (stereo not drawn) [MLS000759877-01] | – | – | 19.3 µM
24 | Cc1nn2c(NCc3ccccn3)cc(C(C)C)nc2c1-c1ccccc1 [MLS000762881-01] | – | – | 12.2 µM

Row | Compound | AC50 [1] | CC50 at 48 h (in vitro; hepg2) | CC50 at 48 h (in vitro; HepG2 cells)
25 | O=C1C=CC(Cl)=CC1=CNNC(=O)c1ccncc1 [MLS000766661-01] | – | – | 12.2 µM
26 | c1ccc(Oc2nc(-c3ccccn3)nc3ccccc23)cc1 [MLS000769533-01] | 7.5 µM | – | 9.68 µM
27 | O=C(NNc1ccnc2cc(Cl)ccc12)C1CCCCC1 [MLS000770801-01] | 7.5 µM | – | 12.2 µM
28 | O=C(Oc1c(CN2CCOCC2)cc(Cl)c2cccnc12)c1ccccc1Br [MLS000770987-01] | 7.5 µM | – | 19.3 µM
29 | COc1cc(OC)cc(C(=O)Oc2c(CN3CCOCC3)cc(Cl)c3cccnc23)c1 [MLS000770997-01] | – | – | 12.2 µM
30 | CCOC(=O)C1=C(c2ccccc2)N=C(N)NC1c1ccc(OCc2ccc(Cl)cc2)c(OC)c1 (stereo not drawn) [MLS000771452-01] | – | – | 34.3 µM
31 | O=S(=O)(c1ccc(Cl)cc1)N1CCN(Cc2ccc(O)c3ncccc23)CC1 [MLS000774708-01] | 13.3 µM | – | 10.9 µM
32 | O=C1C=CC(Br)=CC1=CNNC(=O)c1ccncc1 [MLS000778139-01] | 9.44 µM | – | 12.2 µM
33 | CC(NNC(=O)C12CCC(C)(C(=O)O1)C2(C)C)=C1C=CC=CC1=O (stereo not drawn) [MLS000778293-01] | – | – | 12.2 µM
34 | O=C(Nc1cc(C(F)(F)F)cc(C(F)(F)F)c1)Nc1cnn(-c2ccc([N+](=O)[O-])cc2)c1C(F)(F)F [MLS000851511-01] | 6.68 µM | – | 10.9 µM
35 | CN(C)CC(O)COc1ccc(C(C)(C)c2ccc(OCC(O)CN(C)C)cc2)cc1 (stereo not drawn) [MLS001073934-01] | 8.41 µM | – | 21.7 µM
36 | COc1cnc(-c2ccccn2)nc1N(C)c1ccccc1 [MLS001166302-01] | 5.96 µM | – | 13.7 µM
37 | COC1=CC=CC(=CNNc2cc(N3CCOCC3)ncn2)C1=O [MLS001202693-01] | – | – | 12.2 µM
38 | CCCC(=O)NC(c1ccccc1)c1ccc2cccnc2c1O (stereo not drawn) [MLS001204078-01] | 6.68 µM | – | 12.2 µM
39 | COc1cccc(C(NC(C)=O)c2ccc3cccnc3c2O)c1 (stereo not drawn) [MLS001204096-01] | 4.22 µM | – | 12.2 µM
40 | CCCCC(=O)NC(c1ccc(C(C)C)cc1)c1ccc2cccnc2c1O (stereo not drawn) [MLS001204647-01] | 7.5 µM | – | 15.3 µM
41 | CC(=O)NC(c1ccccc1)c1cc(Cl)c2cccnc2c1O (stereo not drawn) [MLS001210949-01] | – | – | 12.2 µM
42 | CCCC(=O)NC(c1ccc(C(C)C)cc1)c1ccc2cccnc2c1O (stereo not drawn) [MLS001211083-01] | 13.3 µM | – | 12.2 µM
43 | CCCCC(=O)NC(c1ccc(Cl)cc1Cl)c1ccc2cccnc2c1O (stereo not drawn) [MLS001212967-01] | – | – | 21.7 µM
44 | O=C(Nc1nc(-c2ccccn2)cs1)c1ccc(F)c(S(=O)(=O)N2CCOCC2)c1 [MLS002162137-01] | 2.11 µM | – | 10.9 µM
45 | C=C1C(=O)OC2CC(C)C3C=CC(=O)C3(C)C(O)C12 (stereo not drawn) [MLS002701927-01] | – | 15.3 µM | –
46 | CCCOc1ccc(C(=O)Nc2ccc(-c3cc4ccccc4oc3=O)c(C)c2)cc1 [NCGC00098245-01] | – | – | 24.3 µM
47 | FC(F)(F)c1cccc(Nc2nc3nonc3nc2Nc2ccc(Cl)cc2)c1 [NCGC00100377-01] | 0.75 µM | – | 3.85 µM
48 | COc1ccc(C2C=C(c3ccc(F)cc3)Nc3nc(-c4ccc(Cl)cc4)nn32)cc1 (stereo not drawn) [NCGC00100513-01] | 0.75 µM | – | 27.3 µM

Row | Compound | AC50 [1] | CC50 at 48 h (in vitro; hepg2) | CC50 at 48 h (in vitro; HepG2 cells)
49 | COc1ccc(CCNc2nc3c(c(=O)n(C)c(=O)n3C)n2Cc2ccc(F)cc2)cc1OC [NCGC00102121-01] | – | – | 13.7 µM
50 | COc1ccccc1Nc1c2c(nc3ccc(NC(=O)/C=C/c4cccc(OC)c4OC)cc13)CCCC2 [NCGC00104013-01] | 5.96 µM | – | 30.6 µM
51 | CCN(CC)[S+](=O)([O-])c1ccc(NC(=O)CCc2c(C)nc3cc(-c4ccc(Cl)cc4)nn3c2C)cc1 [NCGC00110055-01] | 4.73 µM | – | 27.3 µM
52 | CCOCc1cc(CN2CCN(c3ccccc3OC)CC2)c(O)c2ncccc12 [NCGC00114940-01] | 5.96 µM | – | 9.68 µM
53 | CC(C)OCc1cc(CN2CCN(c3cccc(C(F)(F)F)c3)CC2)c(O)c2ncccc12 [NCGC00114970-01] | 6.68 µM | – | 10.9 µM
54 | CCCCOCc1cc(CN2CCN(c3cccc(Cl)c3)CC2)c(O)c2ncccc12 [NCGC00114972-01] | 6.68 µM | – | 17.2 µM
55 | Cc1ccc(Nc2nc3nonc3nc2Nc2cccc(C(F)(F)F)c2)cc1Cl [NCGC00117632-01] | 2.11 µM | – | 4.32 µM
56 | CC(=O)c1cccc(N[S+](=O)([O-])c2cc(-c3cnc(C4CC4)o3)ccc2C)c1 [NCGC00131168-01] | – | – | 30.6 µM
57 | CCNc1nc2c(c(=O)n(C)c(=O)n2C)n1Cc1ccc(F)cc1 [NCGC00142036-01] | – | – | 21.7 µM
58 | O=C(CCCCCCC(=O)Nc1ccccc1)NO [NCGC00168085-01] | – | – | 19.3 µM
59 | Cc1cc(Cl)ccc1-c1ccc(CNC2CN(C(=O)OC(C)(C)C)C2)cc1 [NCGC00374248-01] | – | – | 34.3 µM
60 | CC1=C[C@@H](CN2CCN(c3ccccn3)CC2)[C@H](C(C)C)C[C@H]1Cc1nnc(C)o1 [NCGC00392770-01] | – | – | 35.3 µM
61 | O=C(Nc1ccc(Cl)cc1)c1nc2c(o1)CCN(Cc1cccc(O)c1)CC2 [NCGC00413336-01] | – | – | 17.7 µM
62 | O=C(NCC1CC1)c1nc2c(o1)CCN(Cc1cccc(F)c1)CC2 [NCGC00413365-01] | – | – | 44.4 µM
63 | COCCN1Cc2ccc(NCC(C)C)nc2C(C)(C(=O)Nc2cccc(F)c2)C1 (stereo not drawn) [NCGC00414615-01] | – | – | 35.3 µM
64 | CC(C)c1cc(C(=O)NC2CCN(c3ncccc3C#N)CC2)n(C)n1 [NCGC00431169-01] | – | – | 19.3 µM
65 | O=C(Cc1c[nH]c2ccccc12)N1CCc2c([nH]c(-c3ccc(F)cc3)nc2=O)C1 [NCGC00439989-01] | – | – | 0.00432 µM
66 | Cc1cc(C)n(CCC(=O)N2CC(Oc3ccc(-c4nc(-c5ccccc5)no4)cc3)C2)n1 [NCGC00441169-01] | – | – | 10.9 µM
67 | COc1ccc(-c2nc(CC3CCN(C(=O)c4n[nH]c(=O)c5ccccc45)C3)no2)cc1 (stereo not drawn) [NCGC00443252-01] | – | – | 19.3 µM
68 | O=C(c1ccc2[nH]ccc2c1)N1CCC2(CC1)NC(c1ccc(Br)cc1)=NO2 [NCGC00446987-01] | – | – | 24.3 µM
69 | CC(C)c1cccc(NC(=O)c2ccc(CN3C(=O)NC4(CCOCC4)C3=O)cc2)c1 [NCGC00454607-01] | – | – | 24.3 µM
70 | O=C(Cc1ccccc1F)N1CC(Oc2ccc(-c3noc(-c4cccnc4)n3)cc2)C1 [NCGC00458031-01] | – | – | 19.3 µM
71 | CCC(C)NC(=O)N1CC(Oc2ccc(-c3noc(C4CCOCC4)n3)cc2)C1 (stereo not drawn) [NCGC00458059-01] | – | 12.2 µM | –
72 | CCc1ccc(NC(=O)N2CC(C(=O)N(C)C)C3(CCOCC3)C2)cc1 (stereo not drawn) [NCGC00471776-01] | – | – | 0.00769 µM
